Results as given in US9139502B2, “Use of an urushiol compound in preparation of pharmaceutical compositions for inhibiting Smad3 phosphorylation” (Southern Hospital, Southern Medical University, priority 2013, dated 2015).

Key:
[1] = test system: Smad4; assay: Immunofluorescence staining of Smad4 nuclear translocation; assay type: cell-based, rat; details: NRK52E cells, GQ-5 2.5 μM pre-treated 1 h, TGF-β1 10 ng/ml 2 h
Method: (§1) NRK52E cells were cultured in DMEM-Ham's medium supplemented with 10% fetal bovine serum. The cells reached at approximately 50% confluence were used for in vitro experiments. Cells were serum-starved for 12 h, and randomized into 3 groups: (1) Controls; (2) TGF-β1 only; (3) TGF-β1+GQ-5.
(2) TGF-β1 only: pre-treated with DMSO for 1 h, followed with TGF-β1 (10 ng/ml) for 2 h
(3) TGF-β1+GQ-5: pre-treated with GQ-5 (2.5 μM) for 1 h, followed with TGF-β1 (10 ng/ml) for 2 h
GQ-5 was dissolved in DMSO. Cells were treated as described Immunofluorescence staining was performed to examine the nuclear translocation of Smad2, Smad3, and Smad4.

[2] = test system: UUO rats; assay: Renal interstitial fibrosis after UUO (HE and Masson trichrome staining); assay type: in vivo, rat; details: GQ-5 40 mg/kg daily i.p. initiating right after or 7 days after operation, sacrificed day 14
Method: Male Sprague-Dawley rats were randomized into 4 groups (n=6 in each group): (1) sham operated rats; (2) UUO rats; (3) UUO+GQ-5 d1 rats; (4) UUO+GQ-5 d7 rats.
(§2) GQ-5 was dissolved in 5% propylene glycol.
(3) UUO+GQ-5 d1 rats: daily intraperitoneal injection of GQ-5 (40 mg/kg body weight) right after UUO;
(4) UUO+GQ-5 d7 rats: daily intraperitoneal injection of GQ-5 (40 mg/kg body weight) 7 days after UUO.
UUO was performed using an established protocol as described. GQ-5 was dissolved in 5% propylene glycol. Rats were administrated with GQ-5 as described before. All the rats were sacrificed 14 days after UUO. HE staining, Masson trichrome staining were performed to examine the renal tissue injury, and Real-time PCR analyses, immunohistochemical staining, and Western blot analyses were performed to examine α-SMA, collagen I and fibronectin expression in kidney tissue

[3] = test system: NRK52E cells; assay: MTT cell viability test; assay type: cell-based, rat; details: GQ-5 0.25-4 μM, 1 h
Method: To test the toxicity of GQ-5, rat proximal tubular cells (NRK52E) were seeded into 96-well plates in a volume of 200 μl per well (1×10^5 cell/ml) and incubated for 24 hours to allow cells to attach. The cells were then incubated with indicated amount of GQ-5 for 1 h. Cell viability was determined by addition of 20 μl of 3-(4,5-dimethylthiazol-2-yl)-2, 5-diphenyltetrazolium bromide (MTT) at a concentration of 5 mg/ml. After incubation for 4 hours, the medium was removed and 150 μl of DMSO was added to dissolve the formazan crystals. The absorbance was read at 540 nm by using iMark™Microplate Reader (Bio-Rad).

[4] = test system: Smad2 phosphorylation; assay: Western blot of TGF-β1-induced Smad2 phosphorylation in vitro; assay type: cell-based, rat
Method: as §1, with “NRK52E and NRK49F” for “NRK52E”, “6” for “3”, “(2) GQ-5 only; (3)” for “(2)”, “(4) TGF-β1+GQ-5 0.1 μM; (5) TGF-β1+GQ-5 0.5 μM; (6) TGF-β1+GQ-5 2.5 μM.” for “(3) TGF-β1+GQ-5.”
(2) GQ-5 only: pre-treated with GQ-5 (2.5 μM) for 1 h, followed with DMEM for 1 h
(3) TGF-β1 only: pre-treated with DMSO (0.1%) for 1 h, followed with TGF-β1 (10 ng/ml) for 1 h
(4) TGF-β1+GQ-5 0.1 μM: pre-treated with GQ-5 (0.1 μM) for 1 h, followed with TGF-β1 (10 ng/ml) for 1 h
(5) TGF-β1+GQ-5 0.5 μM: pre-treated with GQ-5 (0.5 μM) for 1 h, followed with TGF-β1 (10 ng/ml) for 1 h
(6) TGF-β1+GQ-5 2.5 μM: pre-treated with GQ-5 (2.5 μM) for 1 h, followed with TGF-β1 (10 ng/ml) for 1 h.
GQ-5 was dissolved in DMSO. Cells were treated as described. Cell lysates were immunoblotted with antibodies against phospho-Smad3, Smad3, phospho-Smad2, Smad2.
as §1, with “into 8” for “into 3”, “(2) GQ-5” for “(2) TGF-β1”, “(3) TGF-β1 0.5 h; (4) TGF-β1 0.5 h+GQ-5; (5) TGF-β1 1.0 h; (6) TGF-β1 1.0 h+GQ-5; (7) TGF-β1 3.0 h; (8) TGF-β1 3.0 h+GQ-5; […]” for “(3) TGF-β1+GQ-5.”

[5] = test system: p38; assay: Western blot of p38 phosphorylation in UUO kidneys; assay type: in vivo, rat; details: UUO rats, GQ-5 40 mg/kg daily i.p. right after UUO, sacrificed day 14
Method: Male Sprague-Dawley rats with body weight 200 to 250 g were randomized into 3 groups (n=6 in each group): (1) sham operated rats; (2) UUO rats; (3) UUO+GQ-5 rats.
as §2
(3) UUO+GQ-5 rats: daily intraperitoneal injection of GQ-5 (40 mg/kg body weight) right after UUO;
UUO was performed using an established protocol as described. GQ-5 was dissolved in 5% propylene glycol. Rats were administrated with GQ-5 as described before. All the rats were sacrificed 14 days after UUO. Western blot analyses were performed to examine the Smad4, Smad7 expression and p38, PI3K, ERK phosphorylation.

## CCCCCC/C=C\CCCCCCCc1cccc(O)c1O [GQ-5, 3-[(Z)-pentadec-8-enyl]catechol]
[1]
  nuclear translocation of Smad4: also reduced
[2]
  inflammatory cell infiltration: significantly reduced
  interstitial fibrosis score: significantly reduced
[3]
  viability and proliferation of the cells (MTT): did not affect
[4]; NRK52E and NRK49F cells, GQ-5 0.1, 0.5, 2.5 μM pre-treated 1 h, TGF-β1 10 ng/ml 1 h
  TGF-β1-induced Smad2 phosphorylation: did not affect
[4]; NRK52E cells, GQ-5 2.5 μM pre-treated 1 h, TGF-β1 10 ng/ml 0.5, 1.0, 3.0 h
  TGF-β1-induced Smad2 phosphorylation, time course: did not affect
[5]
  phosphorylation of p38: did not affect
